Patent US20260209249A1, “NOVEL TRICYCLIC COMPOUND AS KRAS G12D INHIBITOR, AND USE THEREOF” (SK Biopharmaceuticals Co., priority 2022, published 2026)
pIC50: −log10 of the molar value.

Tests used:
[1] = target: T1, GDP-KRAS G12D mutant protein (Homo sapiens, UniProt P01116, G12D); experiment: Differential scanning fluorimetry (DSF) binding affinity to GDP-KRAS G12D mutant protein; details: DSF thermal shift, 10 μM compound, 4 μg KRAS protein
T1 construct: purchased Daegu Gyeongbuk Medical Innovation Foundation (DGMIF), made to order
Summary of the method: (§1)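 Each sample held 4 μg recombinant KRAS G12D (GDP- or GppNHp-bound) and 10 μM compound, incubated 30 min at room temperature before adding 2× SYPRO Orange. The GDP form was run in kit buffer, the GppNHp form in 50 mM HEPES pH 7.5. Melt was 25–99 °C at 0.05 °C/s (580/623 nm), reported as ΔTm versus no compound.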

[2] = target: T2, GppNHp-KRAS G12D mutant protein (Homo sapiens, UniProt P01116, G12D); experiment: Differential scanning fluorimetry (DSF) binding affinity to GppNHp-KRAS G12D mutant protein; details: DSF thermal shift, 10 μM compound, 4 μg KRAS protein, 50 mM HEPES (pH 7.5)
T2 construct: purchased Daegu Gyeongbuk Medical Innovation Foundation (DGMIF), made to order
Summary of the method: as §1

[3] = system: ERK phosphorylation (pERK) induced by KRAS G12D mutation; experiment: Inhibitory activity against ERK phosphorylation (pERK) induced by KRAS G12D mutation, immunofluorescence assay in AsPC-1 cells; format: cell-based; details: Homo sapiens, ASPC1, 3 h drug treatment, pERK (Thr202/Tyr204) signal normalized to DAPI
From the text: Test Example 2: Measurement of Inhibitory Activity Against ERK Phosphorylation (pERK) Induced by KRAS G12D Mutation (Immunofluorescence Assay)
Immunofluorescence is a method used to detect specific substances within cells or tissues through antigen-antibody interactions, and allows for the identification of the presence or absence of specific proteins by using antibodies labeled with various fluorescent dyes. After a primary antibody that recognizes a specific protein selectively binds to the epitope, a fluorescent antibody (secondary antibody) is bound to the primary antibody.
It was confirmed as follows that the compounds according to an embodiment of the present application inhibit phosphorylation of extracellular signal-regulated kinases (Phospho-ERK, pERK) induced by KRAS G12D mutation.
AsPC-1 cells were seeded at a density of 10,000 cells/well in RPMI-1640 medium containing 10% FBS and 1% Penicillin-Streptomycin in 384-well plates (Perkinelmer, #6057300) and allowed to attach for 16 h. After the cells attached to the plate, the cells were treated with drugs at a maximum concentration of 10 μM with a 3-fold serial dilution. After 3 h of drug treatment, the medium was removed and the cells were treated with 50 μL of 4% formaldehyde (Biosesang, #PC2031-050-00) for 20 min and washed three times with 50 μL of phosphate buffered saline (PBS).
50 μL of PBS containing 0.3% Triton X-100 (Sigma, #T8787-250 mL) was added and reacted for 20 minutes to allow antibody penetration into cells, and then the plate was washed three times with 50 μL of PBS. To block nonspecific binding of antibodies to the plate, 50 μL of PBS containing 2% BSA (sigma, #A7906-500G) and 0.01% Tween-20 (Sigma, #P1379-500 mL) (hereinafter referred to as PBS-T) was added, and reacted at room temperature for 2 hours.
To detect pERK, the primary antibody (cell signaling, #9101) was diluted 1:500 in PBS-T containing 2% BSA, 50 μL was added, and the plate was stored in a refrigerator at 4° C. for 16 hours to react, followed by washing three times with 50 μL of PBS-T. To visualize the primary antibody, the secondary antibody, i.e., anti-rabbit-Alexa Fluor 488 (ThermoFisher, #A11008), was diluted 1:1000 in PBS-T containing 2% BSA, 50 μL was added, and after reaction at room temperature for 1 hour, the plate was washed three times with 50 μL of PBS-T. Next, to visualize the nuclei of cells, DAPI (Thermofisher, #62248, 1 mg/mL) was diluted 1:1000 in PBS-T, 50 μL each was added, reacted at room temperature for 10 minutes, and washed three times with 50 μL of PBS-T. 50 μL of PBS-T was added to each well, and the plate was read for fluorescence value using HCS equipment (MOLECULAR DEVICES/ImageXpress Micro).
Data analysis was performed by normalizing the pERK (Thr202/Tyr204) signal to the DAPI signal and calculating the percentage relative to the DMSO as a control. The IC50 value was determined by fitting a four-parameter dose-response curve using the GraphPad Prism software (version 8.4.3), and interpolating the concentration at which 50% inhibition occurred. The results of calculating the inhibitory efficacy of the compounds according to one embodiment of the present application against KRAS G12D mutation-induced pERK activity are shown in Table 3.

Structure (SMILES)	GDP-KRAS G12D (ΔTmD, ° C.) [1]	GppNHp-KRAS G12D (ΔTmD, ° C.) [2]	pIC50 [3]
Cn1cc2c(n1)c(-c1cc(O)cc3ccccc13)cc1nc(OC[C@@]34CCCN3C[C@H](F)C4)nc(N3C[C@H]4CC[C@@H](C3)N4)c12 [Example 68, 4-(9-((1R,5S)-3,8-diazabicyclo[3.2.1]octan-3-yl)-7-(((2R,7aS)-2-fluorotetrahydro-1H-pyrrolizin-7a(5H)-yl)methoxy)-2-methyl-2H-pyrazolo[4,3-f]quinazolin-4-yl)naphthalen-2-ol]	5.75 °C	1.90 °C	5.04
C#Cc1c(F)ccc2cc(O)cc(-c3cc4nc(OC[C@@]56CCCN5C[C@H](F)C6)nc(NCC5(N(C)C)CCC5)c4n4ccnc34)c12 [Example 6, 4-(1-(((1-(dimethylamino)cyclobutyl)methyl)amino)-3-(((2R,7aS)-2-fluorotetrahydro-1H-pyrrolizin-7a(5H)-yl)methoxy)imidazo[1′,2′:1,6]pyrido[3,2-d]pyrimidin-6-yl)-5-ethynyl-6-fluoronaphthalen-2-ol]	–	–	5.63
Cc1cc2c(o1)c(-c1cc(O)cc3ccccc13)c(F)c1nc(OC[C@@]34CCCN3C[C@H](F)C4)nc(NCC3(N(C)C)CCC3)c12 [Example 47, 4-(1-(((1-(dimethylamino)cyclobutyl)methyl)amino)-5-fluoro-3-(((2R,7aS)-2-fluorotetrahydro-1H-pyrrolizin-7a(5H)-yl)methoxy)-8-methylfuro[3,2-n]quinazolin-6-yl)naphthalen-2-ol]	–	–	5.10
Cc1cc2c(o1)c(-c1cc(N)ccc1C(F)(F)F)c(F)c1nc(OC[C@@]34CCCN3C[C@H](F)C4)nc(N3CC4CCC(C3)N4)c12 [Example 49, 3-(1-((1R,5S)-3,8-diazabicyclo[3.2.1]octan-3-yl)-5-fluoro-3-(((2R,7aS)-2-fluorotetrahydro-1H-pyrrolizin-7a(5H)-yl)methoxy)-8-methylfuro[3,2-n]quinazolin-6-yl)-4-(trifluoromethyl)aniline]	1.92 °C	0.73 °C	–
Nc1c(F)c(F)c(F)c(-c2cc3nc(OC[C@@]45CCCN4C[C@H](F)C5)nc(N4C[C@H]5CC[C@@H](C4)N5)c3n3ccnc23)c1F [Example 13, 3-(1-((1R,5S)-3,8-diazabicyclo[3.2.1]octan-3-yl)-3-(((2R,7aS)-2-fluorotetrahydro-1H-pyrrolizin-7a(51H)-yl)methoxy)imidazo[1′,2′:1,6]pyrido[3,2-d]pyrimidin-6-yl)-2,4,5,6-tetrafluoroaniline]	0.28 °C	−0.61 °C	–
C#Cc1c(F)ccc2cccc(-c3c(F)c4nc(OC[C@@]56CCCN5C[C@H](F)C6)nc(N5C[C@H]6CC[C@@H](C5)N6)c4c4cn(C)nc34)c12 [Example 82, 9-((1 R,5S)-3,8-diazabicyclo[3.2.1]octan-3-yl)-4-(8-ethynyl-7-fluoronaphthalen-1-yl)-5-fluoro-7-(((2R,7aS)-2-fluorotetrahydro-1H-pyrrolizin-7a(5H)-yl)methoxy)-2-methyl-2H-pyrazolo[4,3-n]quinazoline]	7.52 °C	3.26 °C	–
C#Cc1c(F)ccc2cc(N)cc(-c3c(F)c4nc(OCC5(CN6CCC7(CC6)CC7(F)F)CC5)nc(N5C[C@H]6CC[C@@H](C5)N6)c4c4cc(C)oc34)c12 [Example 58, 4-(1-((1R,5S)-3,8-diazabicyclo[3.2.1]octan-3-yl)-3-((1-((1,1-difluoro-6-azaspiro[2.5]octan-6-yl)methyl)cyclopropyl)methoxy)-5-fluoro-8-methylfuro[3,2-f]quinazolin-6-yl)-5-ethynyl-6-fluoronaphthalen-2-amine]	6.81 °C	1.92 °C	–
C#Cc1c(F)ccc2cc(N)cc(-c3cc4nc(OC[C@@]56CCCN5C[C@H](F)C6)nc(N5C[C@H]6CC[C@@H](C5)N6)c4n4ccnc34)c12 [Example 24, 4-(1-((1R,5S)-3,8-diazabicyclo[3.2.1]octan-3-yl)-3-(((2R,7aS)-2-fluorotetrahydro-1H-pyrrolizin-7a(5H)-yl)methoxy)imidazo[1′,2′:1,6]pyrido[3,2-d]pyrimidin-6-yl)-5-ethynyl-6-fluoronaphthalen-2-amine]	5.48 °C	2.07 °C	–
Cc1cc2c(o1)c(-c1ccc(F)c3sc(N)nc13)c(F)c1nc(OC[C@@]34CCCN3C[C@H](F)C4)nc(N3C[C@H]4CC[C@@H](C3)N4)c12 [Example 55, 4-(1-((1R,5S)-3,8-diazabicyclo[3.2.1]octan-3-yl)-5-fluoro-3-(((2R,7aS)-2-fluorotetrahydro-1H-pyrrolizin-7a(5H)-yl)methoxy)-8-methylfuro[3,2-n]quinazolin-6-yl)-7-fluorobenzo[d]thiazol-2-amine]	3.24 °C	1.91 °C	–
C#Cc1c(F)ccc2cc(O)cc(-c3c(F)c4nc(OC[C@@]56CCCN5CC(=C(F)F)C6)nc(N5CC6CCC(C5)N6)c4c4cc(C)oc34)c12 [Example 66, 4-(1-((1R,5S)-3,8-diazabicyclo[3.2.1]octan-3-yl)-3-(((S)-2-(difluoromethylene)tetrahydro-1H-pyrrolizin-7a(5H)-yl)methoxy)-5-fluoro-8-methylfuro[3,2-n]quinazolin-6-yl)-5-ethynyl-6-fluoronaphthalen-2-ol]	14.49 °C	9.45 °C	–
C#Cc1c(F)ccc2cc(O)cc(-c3cc4nc(OC[C@]56CCCN5CC(=C)C6)nc(N5C[C@H]6CC[C@@H](C5)N6)c4n4ccnc34)c12 [Example 33, 4-(1-((1R,5S)-3,8-diazabicyclo[3.2.1]octan-3-yl)-3-(((R)-2-methylenetetrahydro-1H-pyrrolizin-7a(5H)-yl)methoxy)imidazo[1′,2′:1,6]pyrido[3,2-d]pyrimidin-6-yl)-5-ethynyl-6-fluoronaphthalen-2-ol]	7.42 °C	3.59 °C	–
CCc1c(F)ccc2cc(O)cc(-c3cc4nc(OC[C@@]56CCCN5CC(=C(F)F)C6)nc(N5[C@@H]6CC[C@H]5CNC6)c4n4ccnc34)c12 [Example 107, 4-(1-((1 R,5S)-3,8-diazabicyclo[3.2.1]octan-8-yl)-3-(((S)-2-(difluoromethylene)tetrahydro-1H-pyrrolizin-7a(5H)-yl)methoxy)imidazo[1′,2′:1,6]pyrido[3,2-d]pyrimidin-6-yl)-5-ethyl-6-fluoronaphthalen-2-ol]	8.91 °C	4.32 °C	–
Cn1cc2c(n1)c(-c1cc(O)cc3ccc(F)c(F)c13)cc1nc(OC[C@@]34CCCN3C/C(=C\F)C4)nc(N3C[C@H]4CC[C@@H](C3)N4)c12 [Example 84, 4-(9-((1R,5S)-3,8-diazabicyclo[3.2.1]octan-3-yl)-7-(((S,Z)-2-(fluoromethylene)tetrahydro-1H-pyrrolizin-7a(5H)-yl)methoxy)-2-methyl-2H-pyrazolo[4,3-f]quinazolin-4-yl)-5,6-difluoronaphthalen-2-ol]	8.13 °C	4.13 °C	–
